These are literature values, as cited in publication PMC3066546, “Development of modified nucleosides that have supremely high anti-HIV activity and low toxicity and prevent the emergence of resistant HIV mutants” (Proceedings of the Japan Academy. Series B, Physical and …, 2011).

Read-outs that look alike come from different tables or passages of the source.

The conditions of data set [1]: CEM cells, MT4 cells, MAGI-CCR5 cells.
The next data set relates to HIV-1LAI. Conditions: MTT assay, MT-4 cells. (Formazan colour is commonly taken as a measure of viable cells.)
The test system of another data set is HXB2 (wild type HIV). Details: method as in PMID 11087576, PMID 11577734, PMID 15200030. Conditions: MAGI assay.
A further data set deals with KH65R drug-resistant HIV. Further details: method as in PMID 11087576, PMID 11577734, PMID 15200030. The conditions noted are these: MAGI assay.
Another data set deals with L74V drug-resistant HIV. Details: method as in PMID 11087576, PMID 11577734, PMID 15200030. The conditions noted are these: MAGI assay.
Data set [2] concerns 41/215 drug-resistant HIV. Details: method as in PMID 11087576, PMID 11577734, PMID 15200030. Conditions: MAGI assay.
The test system of a further data set is M184V drug-resistant HIV. Further details: method as in PMID 11087576, PMID 11577734, PMID 15200030. The conditions noted are these: MAGI assay.
For another data set, the system named is M184I drug-resistant HIV. Details: method as in PMID 11087576, PMID 11577734, PMID 15200030. Conditions: MAGI assay.
Data set [3] relates to 41/69/ 125/SG drug-resistant HIV. Further details: method as in PMID 11087576, PMID 11577734, PMID 15200030. Conditions: MAGI assay.
The subject of data set [4] is MDR (multidrug-resistant HIV). Conditions: MAGI assay.
Data set [5] addresses Y181C (non-nucleoside reverse transcriptase inhibitor-resistant). Details: method as in PMID 11087576, PMID 11577734, PMID 15200030. Conditions: MAGI assay.
For another data set, the system named is HIV-1 Wild-type. Details: method as in PMID 563233, PMID 17548498, PMID 18487070. Conditions: Table 6.
For data set [6], the system named is HIVs isolated from seven heavily drug-experienced patients. Further details: method as in PMID 11302824, PMID 12455229, PMID 15457679. The conditions noted are these: seven heavily drug-experienced AIDS patients, as efficiently as against wild-type HIV.
The conditions of data set [7]: Table 6.
The subject of the next data set is ICR mice. Conditions: for Mortality (%): six-week-old ICR male mice.
In data set [8] the test system is adenosine deaminase. Conditions: 4′EdA to 4′EdI, 4′Ed2AA to 4′EdG.
The test system of another data set is HIV-1 M184V. Further details: method as in PMID 563233, PMID 17548498, PMID 18487070. The conditions noted are these: Table 6.
Another data set deals with HIV-1 MDR. Details: method as in PMID 563233, PMID 17548498, PMID 18487070. Conditions: Table 6.
In another data set the test system is HIV-1wild. Details: method as in PMID 18487070. The conditions noted are these: Table 7; read-out: Anti-HIV activity (MAGI assay, µg) HIV-1wild.
In the next data set the test system is HIV-1MDR. Details: method as in PMID 18487070. Conditions: Table 7; read-out: Anti-HIV activity (MAGI assay, µg) HIV-1MDR.
Data set [9] concerns adenosine deaminase. Details: method as in PMID 563233, PMID 17548498, PMID 18487070. Conditions: conditions where 4′EdA was completely deaminated in 60 min.
On the set-up of data set [10]: method as in PMID 563233, PMID 17548498, PMID 18487070. Conditions: 120 min, acidic conditions of gastric juices (pH 1.06), 24 ℃.
Data set [11] deals with HIV. Conditions: 24 h after removal of extracellular drug, MT4 cells and MAGI cells cultured with 0.1 µM.
Data set [12] has as its target human mitochondrion DNA polymerase (DNA polymerase γ). Further details: method as in PMID 17548498, PMID 18487070. Conditions: read-out: EC50 to inhibit the incorporation of dATP.
The next data set addresses DNA polymerase α. The conditions noted are these: read-out: EC50 against DNA polymerase α.
The target in the next data set is DNA polymerase β. The conditions noted are these: read-out: EC50 against DNA polymerase β.
The test system of another data set is HIV-1M184V. Further details: method as in PMID 18487070. The conditions noted are these: Table 7; read-out: Anti-HIV activity (MAGI assay, µg) HIV-1M184V.
In data set [13] the test system is multi-drug resistant HIV mutant.
In data set [14] the test system is HIV. Details: method as in PMID 15456247.
For another data set, the system named is RT of wild-type HIV. Details: method as in PMID 15456247. Conditions: compared with AZTTP.
In a further data set the test system is RT of the M184V mutant. Further details: method as in PMID 15456247. Conditions: 4′EddCTP compared with RT of wild-type HIV.
Data set [15] relates to HIV. Details: method as in PMID 7764216. Conditions: anti-HIV, Table 1.

As to “3′-azido-3′-deoxythymidine-5′-O-phosphate [AZTTP, reference compound]”, the “intracellular half-life (T1/2)” value in [1] is reported as 3 h.

In the case of `C#C[C@]1(CO)O[C@@H](n2cc(F)c(N)nc2=O)C[C@@H]1O` [4′-C-ethynyl-2′-deoxy-5-fluorocytidine], in the data set on HIV-1LAI (Table 2), the EC50 is 30 nM. Moreover, the CC50 in the data set with MT-4 cells (Table 2) is above 100000 nM. For the same compound, the “toxicity with other cells” value in the data set with other cells is recorded as “toxic”.

`C#C[C@]1(CO)O[C@@H](n2cnc3c(N)nc(N)nc32)C[C@@H]1O` [4′Ed2AA, 2′-deoxy-4′-C-ethynyl-2-aminoadenosine]: the EC50 in the data set with HIV-1LAI (Table 3) was 0.3 nM; in the data set with HXB2 (wild type HIV), 1.4 nM; in the data set on KH65R drug-resistant HIV it was 0.35 nM; in the data set on L74V drug-resistant HIV, 0.7 nM; in [2], 1.7 nM; in the data set on M184V drug-resistant HIV, 5.9 nM. Besides, the EC50 was 2.7 nM with M184I drug-resistant HIV; 4.1 nM in data set [3]; 1 nM in data set [4]; 0.8 nM in [5]; 0.34 nM in the data set on HIV-1 Wild-type. Also, the “potency against HIVs isolated from patients” value in [6] is on record as “highly potent”. Moreover, the CC50 with MT-4 cells (Table 3) is 820 nM; in the data set on Hela cells (Table 4, Hela cells), above 200000 nM; in data set [7], 900 nM. For the same compound, the “Mortality (%)” value is reported as 0% in the data set on ICR mice (intraveneous administration, 1 mg/Kg); 0% with ICR mice (intraveneous administration, 3 mg/Kg); 100% in the data set on ICR mice (intraveneous administration, 10 mg/Kg); 100% in the data set with ICR mice (intraveneous administration, 100 mg/Kg); 0% in the data set on ICR mice (oral administration, 1 mg/Kg); 100% in the data set with ICR mice (oral administration, 3 mg/Kg). In addition, the “Mortality (%)” value was 100% with ICR mice (oral administration, 10 mg/Kg) and 100% in the data set on ICR mice (oral administration, 100 mg/Kg). For the same compound, the “survival days of mice after administration” value with ICR mice (intraveneous, 10 mg/Kg) is 2 days; in the data set on ICR mice (intraveneous, 100 mg/Kg), 1 days; in the data set with ICR mice (oral, 3 mg/Kg) it was 2 days; in the data set with ICR mice (oral, 10 mg/Kg) it was 2 days; in the data set on ICR mice (oral, 100 mg/Kg), 1 days. For the same compound, the “conversion by adenosine deaminase in mice” value with adenosine deaminase [8] is given as “easily converted”.

Take `C#C[C@]1(CO)O[C@@H](n2cnc3c(N)nc(F)nc32)C[C@@H]1O` [4′Ed2FA, 2′-deoxy-4′-C-ethynyl-2-fluoroadenosine]: the EC50 in the data set with HIV-1 Wild-type was 0.068 nM; in the data set on HIV-1 M184V, 3.1 nM; in the data set on HIV-1 MDR it was 0.15 nM; in the data set with HIV-1wild it was 0.2 nM; in the data set with HIV-1MDR, 0.14 nM. Moreover, the “stability to adenosine deaminase” value in the data set on adenosine deaminase [9] is “completely stable”. The part decomposed in data set [10] is given as 3%. Moreover, the “cells protected against the infection of HIV” value in the data set on HIV [11] is reported as “About 50%”. For the same compound, in data set [7], the CC50 is 7500 nM. For the same compound, the Survivors/total with ICR mice (i.v., single dosage 1 mg Kg−1, ICR mice) is given as 8/8; with ICR mice (i.v., single dosage 3 mg Kg−1, ICR mice), 8/8; in the data set with ICR mice (i.v., single dosage 10 mg Kg−1, ICR mice), 8/8; in the data set on ICR mice (i.v., single dosage 30 mg Kg−1, ICR mice), 8/8; in the data set on ICR mice (i.v., single dosage 100 mg Kg−1, ICR mice), 8/8; in the data set with ICR mice (p.o, single dosage 1 mg Kg−1, ICR mice) it was 8/8. Moreover, the Survivors/total in the data set on ICR mice (p.o, single dosage 3 mg Kg−1, ICR mice) is recorded as 8/8; in the data set with ICR mice (p.o, single dosage 10 mg Kg−1, ICR mice), 8/8; in the data set on ICR mice (p.o, single dosage 30 mg Kg−1, ICR mice), 8/8; in the data set on ICR mice (p.o, single dosage 100 mg Kg−1, ICR mice), 8/8. For the same compound, the “acute toxicity to mice” value in the data set on ICR mice (oral or intravenous administration up to 100 mg kg−1) was “did not show any acute toxicity”.

As to `C#C[C@]1(COP(=O)(O)OP(=O)(O)OP(=O)(O)O)O[C@@H](n2cnc3c(N)nc(F)nc32)C[C@@H]1O` [4′Ed2FATP, 2′-deoxy-4′-C-ethynyl-2-fluoroadenosine-5-O-triphosphate], the EC50 in data set [12] was 10000 nM; on DNA polymerase α, above 200000 nM; on DNA polymerase β, above 200000 nM. Further, the “intracellular half-life (T1/2)” value in data set [1] was around 18 h.

As to `C#C[C@@]1(CO)C=C[C@H](n2cc(C)c(=O)[nH]c2=O)O1` [4′Ed4T, 4′-C-ethynyl-2′,3′-didehydro-3′-deoxythymidine], the EC50 in the data set with HIV-1wild was 1500 nM; in the data set on HIV-1MDR, 1100 nM; in the data set with HIV-1M184V, 17000 nM. In addition, the “potency against wild-type HIV compared with d4T” value with wild-type HIV is “more potent”. For the same compound, the “potency against multi-drug resistant HIV mutant compared with d4T” value in data set [13] is “more potent”. Besides, in the data set with M184V-mutant, the “potency against M184V-mutant compared with d4T” value was “a little less potent”.

With `C#C[C@@]1(CO)CC[C@H](n2ccc(N)nc2=O)O1` [4′EddC, 4′-C-ethynyl-2′,3′-dideoxycytidine], the “activity against HIV in cellular systems” value in the data set on HIV [14] is “inactive”.

For `C#CC1(COP(=O)(O)OP(=O)(O)OP(=O)(O)O)CCC(n2ccc(N)nc2=O)O1` (stereo not shown) [4′EddCTP], the “activity against the RT of wild-type HIV” value in the data set on RT of wild-type HIV is given as “more active”. In addition, the “activity against RT of the M184V mutant” value in the data set with RT of the M184V mutant was “much less active”.

Take `Cc1cn([C@H]2C[C@H](N=[N+]=[N-])[C@@H](CO)O2)c(=O)[nH]c1=O` [AZT, 3′-azido-3′-deoxythymidine, reference compound]: the EC50 in the data set on HIV [15] was 1 nM; in the data set on HIV-1LAI (Table 2), 3.2 nM; in the data set on HIV-1LAI (Table 3), 3.2 nM; with HXB2 (wild type HIV), 22 nM; with KH65R drug-resistant HIV, 20 nM; in the data set on L74V drug-resistant HIV, 20 nM. For the same compound, the EC50 is 300 nM in [2]; 10 nM in the data set on M184V drug-resistant HIV; 17 nM in the data set on M184I drug-resistant HIV; 1600 nM in data set [3]; 15300 nM in data set [4]; 14 nM in [5]. Moreover, the EC50 in the data set with HIV-1 Wild-type is 3.2 nM; in the data set with HIV-1 M184V it was 16 nM; in the data set on HIV-1wild, 170 nM; in the data set with HIV-1MDR it was 74300 nM; in the data set on HIV-1M184V it was 130 nM. Moreover, the CC50 was 29400 nM in the data set with MT-4 cells and above 100000 nM in the data set with Hela cells.
